# ChEMBL document CHEMBL1201862, “PubChem BioAssay data set” (2004)
#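 Grown in 96-well plates, cells were treated for 48 hours with each compound at five concentrations. Insufficient inhibition: endpoint recorded as highest concentration tested. GI50 marks 50% less growth.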 Calls of active or inactive are those of the source. Rule as the data show it: active = GI50 up to about 1.1 µM and inactive = higher.
# What was measured:
# Assay in all cases: NCI tumour cell line growth inhibition, 48 h
# UACC-62 = system: UACC-62
# NCI-H522 = system: NCI-H522
# SF-295 = system: SF-295
# HT-29 = system: HT-29
# M14 = system: M14
# HCT-116 = system: HCT-116
# CCRF-CEM = system: CCRF-CEM
# ACHN = system: ACHN
# SNB-75 = system: SNB-75
# HOP-62 = system: HOP-62
# NCI-H460 = system: NCI-H460
# SF-539 = system: SF-539
# OVCAR-8 = system: OVCAR-8
# U-251 = system: U-251
# HOP-92 = system: HOP-92
# OVCAR-3 = system: OVCAR-3
# SK-OV-3 = system: SK-OV-3
Compound,GI50 (UACC-62),GI50 (NCI-H522),GI50 (SF-295),GI50 (HT-29),GI50 (M14),GI50 (HCT-116),GI50 (CCRF-CEM),GI50 (ACHN),GI50 (SNB-75),GI50 (HOP-62),GI50 (NCI-H460),GI50 (SF-539),GI50 (OVCAR-8),GI50 (U-251),GI50 (HOP-92),GI50 (OVCAR-3),GI50 (SK-OV-3)
Cc1c[nH]c2c1C13CC1CN(C(=O)c1cc4cc(NC(=O)c5cc6ccccc6o5)ccc4[nH]1)C3=CC2=O (configuration not stated),< 0.001 µM (active),< 0.001 µM (active),< 0.001 µM (active),< 0.001 µM (active),< 0.001 µM (active),< 0.001 µM (active),< 0.001 µM (active),< 0.001 µM (active),< 0.001 µM (active),< 0.001 µM (active),< 0.001 µM (active),< 0.001 µM (active),< 0.001 µM (active),< 0.001 µM (active),,,
COc1ccc(/C(=C/n2ccnc2)C(=O)c2ccc(OC)c(OC)c2)cc1,39.3 µM (inactive),> 100 µM (inactive),,,> 100 µM (inactive),> 100 µM (inactive),> 100 µM (inactive),> 100 µM (inactive),> 100 µM (inactive),> 100 µM (inactive),> 100 µM (inactive),> 100 µM (inactive),> 100 µM (inactive),> 100 µM (inactive),> 100 µM (inactive),> 100 µM (inactive),
CCOc1ccccc1/N=N/c1c(-c2ccccc2)nn(C(=O)CC(=O)Nc2cccc(Cl)c2)c1-c1ccccc1,39.6 µM (inactive),40.5 µM (inactive),50.4 µM (inactive),30 µM (inactive),> 100 µM (inactive),35.1 µM (inactive),37.8 µM (inactive),18.7 µM (inactive),33.8 µM (inactive),72.9 µM (inactive),44.6 µM (inactive),62.1 µM (inactive),63.5 µM (inactive),39.5 µM (inactive),50.7 µM (inactive),24.7 µM (inactive),> 100 µM (inactive)
CCOC(=O)C1=C(Nc2ccc(Cl)c(Cl)c2)OC/C1=N\NS(=O)(=O)c1ccc(C)cc1,39.4 µM (inactive),29 µM (inactive),> 100 µM (inactive),,73.3 µM (inactive),22.8 µM (inactive),27.5 µM (inactive),,35.8 µM (inactive),36.7 µM (inactive),34.3 µM (inactive),37.5 µM (inactive),75.2 µM (inactive),66.5 µM (inactive),,49.5 µM (inactive),75.7 µM (inactive)
Oc1ccc2occ3c2c1CCC3,95.9 µM (inactive),,> 100 µM (inactive),> 100 µM (inactive),> 100 µM (inactive),> 100 µM (inactive),> 100 µM (inactive),> 100 µM (inactive),> 100 µM (inactive),> 100 µM (inactive),> 100 µM (inactive),> 100 µM (inactive),> 100 µM (inactive),> 100 µM (inactive),29.2 µM (inactive),64.1 µM (inactive),> 100 µM (inactive)
O=C1c2cccc([N+](=O)[O-])c2C(=O)c2nccnc21,1.32 µM (inactive),1.36 µM (inactive),1.82 µM (inactive),2.25 µM (inactive),1.57 µM (inactive),1.63 µM (inactive),2.54 µM (inactive),3.19 µM (inactive),1.07 µM (active),,1.46 µM (inactive),1.47 µM (inactive),2.25 µM (inactive),1.4 µM (inactive),7.1 µM (inactive),1.87 µM (inactive),
Cc1ccc(-n2cc(/C(N)=N/O)c3ccccc3c2=O)cc1,> 100 µM (inactive),> 100 µM (inactive),> 100 µM (inactive),> 100 µM (inactive),> 100 µM (inactive),> 100 µM (inactive),> 100 µM (inactive),> 100 µM (inactive),,> 100 µM (inactive),> 100 µM (inactive),> 100 µM (inactive),> 100 µM (inactive),> 100 µM (inactive),,> 100 µM (inactive),> 100 µM (inactive)
Clc1ccc2c(Cl)ncnc2c1I,63.7 µM (inactive),20.6 µM (inactive),> 100 µM (inactive),> 100 µM (inactive),49.8 µM (inactive),76.4 µM (inactive),> 10 µM (inactive),> 10 µM (inactive),14.6 µM (inactive),> 100 µM (inactive),> 100 µM (inactive),,> 100 µM (inactive),> 100 µM (inactive),,> 100 µM (inactive),> 100 µM (inactive)
CCCN(CCC)c1c([N+](=O)[O-])cc(S(N)(=O)=O)cc1[N+](=O)[O-] [ORYZALIN],18.3 µM (inactive),16.7 µM (inactive),16.7 µM (inactive),18.5 µM (inactive),16.9 µM (inactive),18 µM (inactive),16.8 µM (inactive),17.9 µM (inactive),18.3 µM (inactive),17.2 µM (inactive),14.6 µM (inactive),19.7 µM (inactive),19.1 µM (inactive),12 µM (inactive),,16.9 µM (inactive),17.4 µM (inactive)
CCCCCCCCCCCCCCCC/C(C(=O)OC)=C(/O)C(=O)OCC,> 100 µM (inactive),> 100 µM (inactive),> 100 µM (inactive),> 100 µM (inactive),> 100 µM (inactive),> 100 µM (inactive),> 100 µM (inactive),70.5 µM (inactive),55 µM (inactive),> 100 µM (inactive),> 100 µM (inactive),> 100 µM (inactive),> 100 µM (inactive),> 100 µM (inactive),38.9 µM (inactive),> 100 µM (inactive),> 100 µM (inactive)
C=CCN1/C(=C2\SC(=S)N(c3ccc(C)cc3)C2=O)Sc2c1ncn(C)c2=O,> 100 µM (inactive),46.7 µM (inactive),90.8 µM (inactive),> 100 µM (inactive),> 100 µM (inactive),> 100 µM (inactive),> 100 µM (inactive),> 100 µM (inactive),40.7 µM (inactive),69.2 µM (inactive),> 100 µM (inactive),90.8 µM (inactive),95.1 µM (inactive),> 100 µM (inactive),> 100 µM (inactive),,> 100 µM (inactive)
C(CCC[Te][Te]CCCCCCOC1CCCCO1)CCOC1CCCCO1 (configuration not stated),10.6 µM (inactive),,15.9 µM (inactive),12 µM (inactive),21.1 µM (inactive),19.8 µM (inactive),11 µM (inactive),10.6 µM (inactive),17.3 µM (inactive),15.1 µM (inactive),14.8 µM (inactive),17.3 µM (inactive),16 µM (inactive),11.8 µM (inactive),12.2 µM (inactive),,39.6 µM (inactive)
O=C1C(c2ccccc2)=C(c2ccccc2)C(c2ccc(Sc3ccc(C4=C(c5ccccc5)C(=O)C(c5ccccc5)=C4c4ccccc4)cc3)cc2)=C1c1ccccc1,> 100 µM (inactive),> 100 µM (inactive),> 100 µM (inactive),> 100 µM (inactive),> 100 µM (inactive),> 100 µM (inactive),> 100 µM (inactive),,31.3 µM (inactive),60.7 µM (inactive),> 100 µM (inactive),72.9 µM (inactive),> 100 µM (inactive),48.6 µM (inactive),> 100 µM (inactive),> 100 µM (inactive),> 100 µM (inactive)
C/C(=N/N(C=O)C[n+]1ccccc1)C(CN(CC(C)C)CC(C)C)C(=O)Nc1ccc(C)cc1C (configuration not stated),79.6 µM (inactive),> 100 µM (inactive),71.8 µM (inactive),> 100 µM (inactive),> 100 µM (inactive),> 100 µM (inactive),> 100 µM (inactive),94.2 µM (inactive),,> 100 µM (inactive),> 100 µM (inactive),> 100 µM (inactive),> 100 µM (inactive),,75.3 µM (inactive),> 100 µM (inactive),> 100 µM (inactive)
Cc1ccc(C)c(NC(=O)C(=O)Nn2c(S)nc3ccccc3c2=O)c1,> 100 µM (inactive),> 100 µM (inactive),> 100 µM (inactive),> 100 µM (inactive),> 100 µM (inactive),> 100 µM (inactive),> 100 µM (inactive),> 100 µM (inactive),> 100 µM (inactive),> 100 µM (inactive),> 100 µM (inactive),> 100 µM (inactive),> 100 µM (inactive),> 100 µM (inactive),> 100 µM (inactive),,> 100 µM (inactive)
CCN(CC)CCOc1ccc(CCc2cc(OC)c(OC)c(OC)c2)cc1,26.1 µM (inactive),20 µM (inactive),18.4 µM (inactive),17.5 µM (inactive),17.5 µM (inactive),32.5 µM (inactive),64.1 µM (inactive),50.4 µM (inactive),31.3 µM (inactive),22.6 µM (inactive),38.5 µM (inactive),81.7 µM (inactive),67.9 µM (inactive),45.3 µM (inactive),20.6 µM (inactive),45.7 µM (inactive),
COc1ccccc1/C=C(\NC(=O)c1ccccc1)c1nc2ccccc2[nH]1,45 µM (inactive),30.3 µM (inactive),,44.1 µM (inactive),39.8 µM (inactive),34 µM (inactive),40.6 µM (inactive),36.6 µM (inactive),31.5 µM (inactive),,50.8 µM (inactive),53.7 µM (inactive),38 µM (inactive),47.2 µM (inactive),28.9 µM (inactive),44.5 µM (inactive),51.1 µM (inactive)
